{"source": "patent US11919888B2", "about": "“Neprilysin inhibitors” (THERAVANCE BIOPHARMA R&D IP, LLC, priority 2012, dated 2024)", "data": [{"target": "T1, human NEP (Homo sapiens, UniProt P08473)", "T1 construct": "purchased R&D Systems, Minneapolis, MN 1182-ZN", "T1 sequence (P08473 52-750 limits assumed)": "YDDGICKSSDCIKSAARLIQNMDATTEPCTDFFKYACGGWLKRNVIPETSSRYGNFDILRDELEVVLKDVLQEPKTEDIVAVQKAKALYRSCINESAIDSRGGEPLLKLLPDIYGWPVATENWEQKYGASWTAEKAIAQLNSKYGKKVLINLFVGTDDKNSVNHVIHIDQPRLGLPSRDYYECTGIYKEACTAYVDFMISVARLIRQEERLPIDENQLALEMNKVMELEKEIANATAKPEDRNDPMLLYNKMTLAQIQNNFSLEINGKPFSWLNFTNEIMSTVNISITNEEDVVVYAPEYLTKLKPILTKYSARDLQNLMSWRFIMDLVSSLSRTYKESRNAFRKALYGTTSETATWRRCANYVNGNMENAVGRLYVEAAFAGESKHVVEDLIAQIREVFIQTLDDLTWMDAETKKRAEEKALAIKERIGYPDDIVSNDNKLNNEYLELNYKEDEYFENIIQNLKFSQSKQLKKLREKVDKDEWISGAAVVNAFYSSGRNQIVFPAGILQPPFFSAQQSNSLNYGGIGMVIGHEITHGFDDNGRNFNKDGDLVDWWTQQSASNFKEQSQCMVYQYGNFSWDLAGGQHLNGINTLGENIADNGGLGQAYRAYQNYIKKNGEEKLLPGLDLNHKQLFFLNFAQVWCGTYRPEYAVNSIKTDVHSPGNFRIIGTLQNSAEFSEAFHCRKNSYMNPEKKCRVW", "assay": "In vitro enzyme inhibition assay at human NEP (fluorogenic peptide substrate)", "format": "biochemical", "details": "recombinant human NEP; 10 μM fluorogenic substrate Mca-D-Arg-Arg-Leu-Dap-(Dnp)-OH; 37° C.; 30 minute preincubation; read-out: pKi value at human NEP (converted)", "experimental": "In Vitro Assays for the Quantitation of Inhibitor Potencies (IC50) at Human and Rat NEP, and Human ACE\nThe inhibitory activities of compounds at human and rat neprilysin (EC 3.4.24.11; NEP) and human angiotensin converting enzyme (ACE) were determined using in vitro assays as described below.\nRecombinant human NEP and recombinant human ACE were obtained commercially (R&D Systems, Minneapolis, MN, catalog numbers 1182-ZN and 929-ZN, respectively). The fluorogenic peptide substrate Mca-D-Arg-Arg-Leu-Dap-(Dnp)-OH (Medeiros et al. (1997) Braz. J. Med. Biol. Res. 30:1157-62; Anaspec, San Jose, CA) and Abz-Phe-Arg-Lys(Dnp)-Pro-OH (Araujo et al. (2000) Biochemistry 39:8519-8525; Bachem, Torrance, CA) were used in the NEP and ACE assays respectively.\nThe assays were performed in 384-well white opaque plates at 37° C. using the fluorogenic peptide substrates at a concentration of 10 μM in Assay Buffer (NEP: 50 mM HEPES, pH 7.5, 100 mM NaCl, 0.01% polyethylene glycol sorbitan monolaurate (Tween-20), 10 μM ZnSO4; ACE: 50 mM HEPES, pH 7.5, 100 mM NaCl, 0.01% Tween-20, 1 μM ZnSO4).\nTest compounds were assayed over the range of concentrations from 10 μM to 20 pM. Test compounds were added to the enzymes and incubated for 30 minute at 37° C. prior to initiating the reaction by the addition of substrate. Reactions were terminated after 20 minutes of incubation at 37° C. by the addition of glacial acetic acid to a final concentration of 3.6% (v/v).\nPlates were read on a fluorometer with excitation and emission wavelengths set to 320 nm and 405 nm, respectively. Inhibition constants were obtained by nonlinear regression of the data using the equation (GraphPad Software, Inc., San Diego, CA): ν=ν0/[1+(I/K′)] where ν is the reaction rate, ν0 is the uninhibited reaction rate, I is the inhibitor concentration and K′ is the apparent inhibition constant.", "units": {"Ki": "nM"}, "values": [{"smiles": "C[C@@](CO)(C[C@@H](Cc1ccc(-c2cc(Cl)ccc2F)cc1)NC(=O)c1c[nH]c(=O)o1)C(=O)O", "note": "[Example 5D, (2S,4R)-5-(5′-Chloro-2′-fluorobiphenyl-4-yl)-2-hydroxymethyl-2-methyl-4-[(2-oxo-2,3-dihydro-oxazole-5-carbonyl)amino]pentanoic Acid]", "Ki": "≤ 1"}, {"smiles": "Cc1ccc(Cl)cc1-c1ccc(C[C@H](C[C@@](C)(CO)C(=O)O)NC(=O)c2c[nH]nn2)cc1", "note": "[Example 2G, (2S,4R)-5-(5′-Chloro-2′-methylbiphenyl-4-yl)-2-hydroxymethyl-2-methyl-4-[(1H-[1,2,3]triazole-4-carbonyl)amino]pentanoic Acid]", "Ki": "≤ 1"}, {"smiles": "CCOC[C@](C)(C[C@@H](Cc1ccc(-c2ccccc2)cc1)NC(=O)c1c[nH]nn1)C(=O)O", "note": "[Example 1I, (2S,4R)-5-Biphenyl-4-yl-2-ethoxymethyl-2-methyl-4-[(1H-[1,2,3]triazole-4-carbonyl)amino]pentanoic Acid]", "Ki": "1 to 3.16"}, {"smiles": "CC(C)Cc1cc(C(=O)N[C@H](Cc2ccc(-c3cc(Cl)ccc3F)cc2)C[C@@](C)(CO)C(=O)O)on1", "note": "[Example 6I, (2S,4R)-5-(5′-Chloro-2′-fluorobiphenyl-4-yl)-2-hydroxymethyl-4-[(3-isobutylisoxazole-5-carbonyl)amino]-2-methylpentanoic Acid]", "Ki": "≤ 1"}, {"smiles": "CCOc1cc(C(=O)N[C@H](Cc2ccc(-c3cc(Cl)ccc3F)cc2)C[C@@](C)(CO)C(=O)O)n[nH]1", "note": "[Example 7B, (2S,4R)-5-(5′-Chloro-2′-fluorobiphenyl-4-yl)-4-[(5-ethoxy-1H-pyrazole-3-carbonyl)-amino]-2-hydroxymethyl-2-methylpentanoic Acid]", "Ki": "≤ 1"}, {"smiles": "COc1cc(C(=O)N[C@H](Cc2ccc(-c3cc(Cl)ccc3F)cc2)C[C@@](C)(CO)C(=O)O)on1", "note": "[Example 6G, (2S,4R)-5-(5′-Chloro-2′-fluorobiphenyl-4-yl)-2-hydroxymethyl-4-[(3-methoxyisoxazole-5-carbonyl)amino]-2-methylpentanoic Acid]", "Ki": "≤ 1"}, {"smiles": "COc1ccccc1-c1ccc(C[C@H](C[C@@](C)(CO)C(=O)O)NC(=O)c2c[nH]nn2)cc1", "note": "[Example 2A, (2S,4R)-2-Hydroxymethyl-5-(2′-methoxybiphenyl-4-yl)-2-methyl-4-[(1H-[1,2,3]triazole-4-carbonyl)amino]pentanoic Acid]", "Ki": "1 to 3.16"}, {"smiles": "C[C@@](CO)(C[C@@H](Cc1ccc(-c2cc(Cl)ccc2Cl)cc1)NC(=O)c1c[nH]nn1)C(=O)O", "note": "[Example 2F, (2S,4R)-5-(2′,5′-Dichlorobiphenyl-4-yl)-2-hydroxymethyl-2-methyl-4-[(1H-[1,2,3]triazole-4-carbonyl)amino]pentanoic Acid]", "Ki": "≤ 1"}, {"smiles": "C[C@@](COCCO)(C[C@@H](Cc1ccc(-c2cc(Cl)ccc2F)cc1)NC(=O)c1cnn[nH]1)C(=O)O", "note": "[Example 2S, (2S,4R)-5-(5′-Chloro-2′-fluorobiphenyl-4-yl)-2-(2-hydroxyethoxymethyl)-2-methyl-4-[(3H-[1,2,3]triazole-4-carbonyl)amino]pentanoic Acid]", "Ki": "3.16 to 10"}, {"smiles": "C[C@@](CO)(C[C@@H](Cc1ccc(-c2cc(Cl)ccc2F)cc1)NC(=O)c1coc(=O)[nH]1)C(=O)O", "note": "[Example 5C, (2S,4R)-5-(5′-Chloro-2′-fluorobiphenyl-4-yl)-2-hydroxymethyl-2-methyl-4-[(2-oxo-2,3-dihydro-oxazole-4-carbonyl)amino]pentanoic Acid]", "Ki": "≤ 1"}, {"smiles": "COC[C@](C)(C[C@@H](Cc1ccc(-c2cccc(Cl)c2)cc1)NC(=O)c1c[nH]nn1)C(=O)O", "note": "[Example 2J, (2S,4R)-5-(3′-Chlorobiphenyl-4-yl)-2-methoxymethyl-2-methyl-4-[(1H-[1,2,3]triazole-4-carbonyl)amino]pentanoic Acid]", "Ki": "1 to 3.16"}, {"smiles": "CC(C)CC(=O)OC[C@](C)(C[C@@H](Cc1ccc(-c2ccccc2)cc1)NC(=O)c1cnn[nH]1)C(=O)O", "note": "[Example 1F, (2S,4R)-5-Biphenyl-4-yl-2-methyl-2-(3-methylbutyryloxymethyl)-4-[(3H-[1,2,3]triazole-4-carbonyl)amino]pentanoic Acid]", "Ki": "≤ 1"}, {"smiles": "C[C@@](COCCCO)(C[C@@H](Cc1ccc(-c2cc(Cl)ccc2F)cc1)NC(=O)c1cnn[nH]1)C(=O)O", "note": "[Example 2P, (2S,4R)-5-(5′-Chloro-2′-fluorobiphenyl-4-yl)-2-(3-hydroxypropoxymethyl)-2-methyl-4-[(3H-[1,2,3]triazole-4-carbonyl)amino]pentanoic Acid]", "Ki": "≤ 1"}, {"smiles": "CC(=O)c1cc(C(=O)N[C@H](Cc2ccc(-c3cc(Cl)ccc3F)cc2)C[C@@](C)(CO)C(=O)O)[nH]n1", "note": "[Example 8A, (2S,4R)-4-[(5-Acetyl-2H-pyrazole-3-carbonyl)amino]-5-(5′-chloro-2′-fluorobiphenyl-4-yl)-2-hydroxymethyl-2-methylpentanoic Acid]", "Ki": "≤ 1"}, {"smiles": "C[C@@](COCCCO)(C[C@@H](Cc1ccc(-c2cccc(Cl)c2)cc1)NC(=O)c1c[nH]nn1)C(=O)O", "note": "[Example 2M, (2S,4R)-5-(3′-Chlorobiphenyl-4-yl)-2-(3-hydroxypropoxymethyl)-2-methyl-4-[(1H-[1,2,3]triazole-4-carbonyl)amino]pentanoic Acid]", "Ki": "≤ 1"}, {"smiles": "COC[C@](C)(C[C@@H](Cc1ccc(-c2cc(Cl)ccc2F)cc1)NC(=O)c1cc(C(C)=O)n[nH]1)C(=O)O", "note": "[Example 8B, (2S,4R)-4-[(5-Acetyl-2H-pyrazole-3-carbonyl)amino]-5-(5′-chloro-2′-fluorobiphenyl-4-yl)-2-methoxymethyl-2-methylpentanoic Acid]", "Ki": "1 to 3.16"}, {"smiles": "CC(C)OC[C@](C)(C[C@@H](Cc1ccc(-c2cc(Cl)ccc2F)cc1)NC(=O)c1cnn[nH]1)C(=O)O", "note": "[Example 2R, (2S,4R)-5-(5′-Chloro-2′-fluorobiphenyl-4-yl)-2-isopropoxymethyl-2-methvl-4-[(3H-[1,2,3]triazole-4-carbonyl)amino]pentanoic Acid]", "Ki": "≤ 1"}, {"smiles": "CCCCCOC[C@](C)(C[C@@H](Cc1ccc(-c2cc(Cl)ccc2F)cc1)NC(=O)c1cnn[nH]1)C(=O)O", "note": "[Example 2Q, (2S,4R)-5-(5′-Chloro-2′-fluorobiphenyl-4-yl)-2-methyl-2-pentyloxymethyl-4-[(3H-[1,2,3]triazole-4-carbonyl)amino]pentanoic Acid]", "Ki": "1 to 3.16"}, {"smiles": "CCOC[C@](C)(C[C@@H](Cc1ccc(-c2cc(Cl)ccc2F)cc1)NC(=O)c1cc(CC)no1)C(=O)O", "note": "[Example 6O, (2S,4R)-5-(5′-Chloro-2′-fluorobiphenyl-4-yl)-2-ethoxymethyl-4-[(3-ethylisoxazole-5-carbonyl)amino]-2-methylpentanoic Acid]", "Ki": "≤ 1"}, {"smiles": "CCc1cc(C(=O)N[C@H](Cc2ccc(-c3cc(Cl)ccc3F)cc2)C[C@@](C)(CO)C(=O)O)on1", "note": "[Example 6H]", "Ki": "≤ 1"}, {"smiles": "CC(C)c1cc(C(=O)N[C@H](Cc2ccc(-c3cc(Cl)ccc3F)cc2)C[C@@](C)(CO)C(=O)O)[nH]n1", "note": "[Example 7C, (2S,4R)-5-(5′-Chloro-2′-fluorobiphenyl-4-yl)-2-hydroxymethyl-4-[(5-isopropyl-2H-pyrazole-3-carbonyl)amino]-2-methylpentanoic Acid]", "Ki": "≤ 1"}, {"smiles": "CCOC[C@](C)(C[C@@H](Cc1ccc(-c2cccc(Cl)c2)cc1)NC(=O)c1cnn[nH]1)C(=O)O", "note": "[Example 2K, (2S,4R)-5-(3′-Chlorobiphenyl-4-yl)-2-ethoxymethyl-2-methyl-4-[(3H-[1,2,3]triazole-4-carbonyl)amino]pentanoic Acid]", "Ki": "≤ 1"}]}]}
